Measurements as given in ChEMBL document CHEMBL1144862, “A mechanism for substrate-Induced formation of 6-hydroxyflavin mononucleotide catalyzed by C30A trimethylamine dehydrogenase” (Bioorg Med Chem Lett, 2003).

Experiment: Kcat value was determined
Assay type: ADME

- k cat: < 2
SMILES: Cc1cc2c(nc3c(=O)[nH]c(=O)nc-3n2C[C@@H](O)[C@@H](O)[C@@H](O)COP(=O)(O)O)c(O)c1C
